Laboratory results as given in article PMC3025922 (BMC Biology, 2010).
Like-named read-outs stand apart in the source and are kept apart here.

Test system: nuclear p27 in LNCaP-S14 cells
Type: cell-based, human
[1] = primary screening, nuclear p27 in LNCaP-S14 cells
[2] = primary screening, S = strong, M = medium, W = weak by Z score

SMILES	hit in primary screen (increased percentage of p27 positive cells) (LNCaP-S14, ~5 to 35 μM, 18 h)	Z score (aver) [1]	Clasf [2]	Clasf	Z score (aver)
C=CCNC1=C2C[C@@H](C)C[C@H](OC)[C@H](O)[C@@H](C)/C=C(\C)[C@H](OC(N)=O)[C@@H](OC)/C=C\C=C(/C)C(=O)NC(=CC1=O)C2=O [17-N-allylamino-17-demethoxygeldanamycin, reference compound]	identified	–	–	–	–
CCC1C=CC=CCC(C)C(O)C(C)(O)C(=O)C(C)C(O)C(C)C(=O)C(C)C(O)C(C)C=CC(=O)OC2C(C)C(CC1)OC1(CCC(C)C(CC(C)O)O1)C2C (centres unmarked) [500B11]	–	3.61	M (medium (Z score 3-5))	–	–
CCCCCCc1ccc(O)cc1O [500E16]	–	3.71	M (medium (Z score 3-5))	–	–
CC(C)COCC(CN(Cc1ccccc1)c1ccccc1)N1CCCC1.Cl (centres unmarked) [500F12]	–	5.49	S (strong (Z score > 5))	–	–
CCN(CC)CCOC(=O)C(c1ccccc1)C1CCCCC1.Cl (centres unmarked) [500G17]	–	2.62	W (weak (Z score 2-3)	–	–
O=C(O)C1CCCNC1 (centres unmarked) [500H10]	–	–	–	M (key: S: strong (Z score > 5); M: medium (Z score 3-5); W: weak (Z score 2-3)	3.12
CCN(CC)CCOC(=O)C1(C2CCCCC2)CCCCC1.Cl [500I04]	–	5.96	S (strong (Z score > 5))	–	–
Cl.N=C(N)NC(=O)c1nc(Cl)c(N)nc1N [500J04]	–	2.43	W (weak (Z score 2-3)	–	–
Clc1ccc(CSC(Cn2ccnc2)c2ccc(Cl)cc2Cl)cc1.O=[N+]([O-])O (centres unmarked) [500K22]	–	3.37	M (medium (Z score 3-5))	–	–
NCC(O)c1ccc(O)c(O)c1 (centres unmarked) [500L12]	–	9.42	S (strong (Z score > 5))	–	–
CN(C)c1ccc(O)c2c1CC1CC3C(N(C)C)C(O)=C(C(N)=O)C(=O)C3(O)C(O)=C1C2=O.Cl (centres unmarked) [501G12]	–	5.15	S (strong (Z score > 5))	–	–
Oc1ccc(Cl)cc1Cc1cc(Cl)ccc1O [501G22]	–	4.38	M (medium (Z score 3-5))	–	–
C[n+]1cc2c3c(ccc2c2ccc4cc5c(cc4c21)OCO5)OCO3.O=[N+]([O-])[O-] [501I17]	–	4.78	M (medium (Z score 3-5))	–	–
COC1CC(CC2CCC(C)C(C(C)C(=O)[O-])O2)OC2(OC(C)(C3CCC(C)(C4OC(C5OC(O)(CO)C(C)CC5C)CC4C)O3)CC2C)C1C.[Na+] (centres unmarked) [501K17]	–	5.95	S (strong (Z score > 5))	–	–
CCC1(O)CC(OC2CC(N(C)C)C(OC3CC(O)C(OC4CCC(=O)C(C)O4)C(C)O3)C(C)O2)c2c(cc3c(c2O)C(=O)c2c(O)cccc2C3=O)C1C(=O)OC (centres unmarked) [502B20]	–	3.61	M (medium (Z score 3-5))	–	–
CC(C)CC1C(=O)N2CCCC2C2(O)OC(NC(=O)C3C=C4c5cccc6[nH]c(Br)c(c56)CC4N(C)C3)(C(C)C)C(=O)N12.CS(=O)(=O)O (centres unmarked) [502C19]	–	2.62	W (weak (Z score 2-3)	–	–
Cc1cc(C2CCCCC2)n(O)c(=O)c1.NCCO [502D07]	–	4.86	M (medium (Z score 3-5))	–	–
CCCCC(CC)CNC(=N)NC(=N)NCCCCCCNC(=N)NC(=N)NCC(CC)CCCC.Cl (centres unmarked) [502E04]	–	9.20	S (strong (Z score > 5))	–	–
CC=C(C(=CC)c1ccc(O)cc1)c1ccc(O)cc1 [502G13]	–	2.95	W (weak (Z score 2-3)	–	–
CCC(C(=O)[O-])C1CCC(C)C(C(C)C(O)C(C)C(=O)C(CC)C2OC3(C=CC(O)C4(CCC(C)(C5CCC(O)(CC)C(C)O5)O4)O3)C(C)CC2C)O1.[Na+] (centres unmarked) [502H07]	–	6.22	S (strong (Z score > 5))	–	–

SMILES	hit in primary screen (increased percentage of p27 positive cells) (LNCaP-S14, ~5 to 35 μM, 18 h)	Z score (aver) [1]	Clasf [2]	Clasf	Z score (aver)
NC(CO)(CO)CO.O=C(c1ccccc1)c1ccc2n1CCC2C(=O)O (centres unmarked) [502J18]	–	2.67	W (weak (Z score 2-3)	–	–
Cc1ccc(-c2cc(C(F)(F)F)nn2-c2ccc(S(N)(=O)=O)cc2)cc1 [502M15]	–	2.59	W (weak (Z score 2-3)	–	–
CCCCCc1cc(O)c2c(c1)OC(C)(C)c1ccc(C)cc1-2 [503C05]	–	5.93	S (strong (Z score > 5))	–	–
COC12C(COC(N)=O)C3=C(C(=O)C(C)=C(N)C3=O)N1CC1NC12 (centres unmarked) [503O09]	–	–	–	M (key: S: strong (Z score > 5); M: medium (Z score 3-5); W: weak (Z score 2-3)	4.55
CS(=O)(=O)c1ccc(F)c(N2C(=O)C=CC2=O)c1 [518H15]	–	7.59	S (strong (Z score > 5))	–	–
CS(=O)(=O)c1ccc(C=CC(=O)Nc2cccc(C(F)(F)F)c2)cc1 [518N13]	–	5.55	S (strong (Z score > 5))	–	–
CS(=O)(=O)c1ccc(C=CC(=O)Nc2ccccn2)cc1 [518N17]	–	4.22	M (medium (Z score 3-5))	–	–
CS(=O)(=O)c1ccc2[nH]c(C(=O)N3CCN(c4ncccc4C(F)(F)F)CC3)cc2c1 [519A06]	–	2.71	W (weak (Z score 2-3)	–	–
Cl.O=C(OC(CCCN1CCOCC1)c1ccc(F)cc1)C(c1ccccc1)c1ccccc1 (centres unmarked) [519B04]	–	2.10	W (weak (Z score 2-3)	–	–
COc1ccccc1CNC1CC(C)(C)n2cccc21 (centres unmarked) [519F12]	–	2.47	W (weak (Z score 2-3)	–	–
CCOC(=O)c1cc2cccc(NC(=O)c3ccccc3OC(C)=O)c2[nH]1 [519O17]	–	9.25	S (strong (Z score > 5))	–	–
CCN(C(=O)c1ccc(C(C)(C)C)cc1)c1ccc(Sc2nc(C)cc(C)n2)cc1 [519P04]	–	5.16	S (strong (Z score > 5))	–	–
CC(C)(C)c1cc2cc(NC(=O)C3CC3)ccc2[nH]1 [520D04]	–	2.80	W (weak (Z score 2-3)	–	–
CC(C)(C)c1cc2cc(NC(=O)c3cccs3)ccc2[nH]1 [520D16]	–	3.98	M (medium (Z score 3-5))	–	–
CC(=O)N1CCC(N(C(=O)C2CC2)c2ccc3c(c2)CCN3C(C)=O)CC1 [520E02]	–	2.46	W (weak (Z score 2-3)	–	–
CCOC(=O)c1cc2cccc(NS(=O)(=O)c3cccc(C(F)(F)F)c3)c2[nH]1 [520F11]	–	7.25	S (strong (Z score > 5))	–	–
CC1CN(C(=O)c2cc(-c3ccc(Cl)cc3)cs2)CC(C)O1 (centres unmarked) [520H18]	–	6.87	S (strong (Z score > 5))	–	–
CC(C)(C)c1cc2cc(NC3CCN(C(=O)c4ccccc4Cl)CC3)ccc2[nH]1 [520N14]	–	2.16	W (weak (Z score 2-3)	–	–
Cc1cc(C)nc(N2CCN(C(=O)C(c3ccccc3)c3ccccc3)CC2)n1 [521H09]	–	2.35	W (weak (Z score 2-3)	–	–
O=C(Nc1ccccc1)Nc1ccc(SCc2nc(OCC(F)(F)F)cc(OCC(F)(F)F)n2)cc1 [521I09]	–	3.70	M (medium (Z score 3-5))	–	–

SMILES	hit in primary screen (increased percentage of p27 positive cells) (LNCaP-S14, ~5 to 35 μM, 18 h)	Z score (aver) [1]	Clasf [2]	Clasf	Z score (aver)
CC(C)(C)c1ccc(S(=O)(=O)Nc2ccc3[nH]c(C(C)(C)C)cc3c2)cc1 [521I15]	–	7.27	S (strong (Z score > 5))	–	–
COc1ccc(S(=O)(=O)Nc2ccc3[nH]c(C(C)(C)C)cc3c2)cc1 [521I17]	–	3.94	M (medium (Z score 3-5))	–	–
CC(C)(C)c1cc2cc(NS(=O)(=O)c3ccc(Cl)cc3)ccc2[nH]1 [521I19]	–	9.14	S (strong (Z score > 5))	–	–
CC(C)(C)c1ccc(C(=O)N2CCC(N(C3CC3)S(=O)(=O)c3cccc(C(F)(F)F)c3)CC2)cc1 [521J08]	–	2.93	W (weak (Z score 2-3)	–	–
CCCN1CCC(N(C(=O)c2ccc(NC(=O)C(c3ccccc3)c3ccccc3)cc2)C2CC2)CC1 [521L12]	–	4.02	M (medium (Z score 3-5))	–	–
Cc1[nH]cnc1-c1ccc(C(F)(F)F)cc1 [522D05]	–	3.87	M (medium (Z score 3-5))	–	–
COc1ccccc1CN(C(=O)Nc1ccc(F)cc1F)c1ccc2[nH]c(C(C)(C)C)cc2c1 [522J16]	–	4.05	M (medium (Z score 3-5))	–	–
CCC(=O)N(Cc1cccc(Cl)c1)c1ccc2[nH]c(C(C)(C)C)cc2c1 [522J18]	–	6.59	S (strong (Z score > 5))	–	–
COc1ccccc1NC(=O)N(Cc1cccc(Cl)c1)c1ccc2[nH]c(C(C)(C)C)cc2c1 [522L04]	–	4.02	M (medium (Z score 3-5))	–	–
O=C(C(c1ccccc1)c1ccccc1)N(Cc1ccc(Cl)cc1)Cc1ccc2cc[nH]c2c1 [522N04]	–	2.29	W (weak (Z score 2-3)	–	–
COc1ccc(S(=O)(=O)N(Cc2ccc(Cl)cc2)Cc2ccc3cc[nH]c3c2)cc1 [522N08]	–	3.74	M (medium (Z score 3-5))	–	–
COc1ccc(S(=O)(=O)Nc2cccc3cc(C(=O)NCc4ccc(Cl)cc4)[nH]c23)cc1 [522N16]	–	5.29	S (strong (Z score > 5))	–	–
CCN(CC)c1ccc(NCN2C(=O)c3ccccc3C2=O)c(C)c1 [541E03]	–	2.75	W (weak (Z score 2-3)	–	–
CCCCc1ccc(NC(C)=O)c(C)c1 [541G02]	–	–	–	S (key: S: strong (Z score > 5); M: medium (Z score 3-5); W: weak (Z score 2-3)	7.67
O=C(c1ccc(Cl)nc1)N(Cc1ccc(-c2cccs2)s1)C1CC1 [541H08]	–	2.92	W (weak (Z score 2-3)	–	–
CC(=O)Nc1ccc(S(=O)(=O)N(Cc2ccc3c(c2)CCO3)C2CC2)cc1 [541J07]	–	3.47	M (medium (Z score 3-5))	–	–
CCN(C(=S)Nc1cccc(C(F)(F)F)c1)c1ccccc1 [541K01]	–	4.12	M (medium (Z score 3-5))	–	–
S=C(NCc1ccccc1)Nc1ccc(Br)cc1 [541M20]	–	4.62	M (medium (Z score 3-5))	–	–
CCCCCCSc1nnc(N)s1 [541O08]	–	8.05	S (strong (Z score > 5))	–	–
O=C1C(Cl)=C(N2CCC(C(=O)N3CCOCC3)CC2)C(=O)c2ccccc21 [567A03]	–	6.25	S (strong (Z score > 5))	–	–
